Among the data in BindingDB's records for doi:10.7270/Q2D21W1M (Nmmlsc, 2009) are EC50 values, retold here.

For one test, the target named is T1, GTPase KRas [1-37] (Homo sapiens, UniProt G3V5T7).
T1 construct: 1-37
T1 sequence (G3V5T7 whole entry): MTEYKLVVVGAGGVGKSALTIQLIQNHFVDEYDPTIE
As to the kind of experiment: Ras wt fluorescent nucleotide binding blockade – biochemical, additional analogs, wildtype, multiplex flow cytometry, Ki, SAR follow-up (AID 2038).
Conditions: not given
(A flow cytometer gives signals particle by particle.)
Turning to `O=C1NC(=S)N/C1=C1\C(=O)Nc2ccccc21` [(3Z)-3-(5-oxo-2-sulfanylideneimidazolidin-4-ylidene)-1H-indol-2-one], the EC50 was 30 µM.
Same read-out and setting: next, `O=C1N=c2c(Br)cccc2=C1c1[nH]c2ccccc2c1NO` [7-bromanyl-3-[3-(oxidanylamino)-1H-indol-2-yl]indol-2-one]: 37.5 µM.
Still for that read-out and setting: the same measure for `O=C1N=c2c(F)cccc2=C1c1[nH]c2ccccc2c1NO` [7-fluoro-3-[3-(hydroxyamino)-1H-indol-2-yl]-2-indolone]: 30 µM.
Same read-out and setting: next, `O=C1Nc2c(F)cccc2C1=C1Nc2ccccc2C1=O`: 30 µM; `C[C@@H](C(=O)O)c1cccc(Oc2ccccc2)c1` [calcium;2-(3-phenoxyphenyl)propanoic acid;hydrate]: 30 µM; `COc1ccc2cc([C@H](C)C(=O)O)ccc2c1` [UNM-0000306098]: 30 µM.
Compound `O=C1N=c2ccccc2=C1c1[nH]c2ccccc2c1NO` [3-[3-(hydroxyamino)-1H-indol-2-yl]-2-indolone] had a 50% effective concentration (EC50) of 30 µM.
The same measure, in the same setting: the same measure for `O=C1NC(=O)/C(=C2/C(=O)Nc3ccccc32)N1`: 30 µM; for `O=C1Nc2c(Cl)cccc2C1=C1Nc2ccccc2C1=O`: 30 µM.
On the same count and under the same terms, the same measure for `O=C1Nc2c(Br)cccc2C1=C1Nc2ccccc2C1=O`: 30 µM; for `O=C1N=c2ccc(Br)cc2=C1c1[nH]c2ccccc2c1NO` [5-bromanyl-3-[3-(oxidanylamino)-1H-indol-2-yl]indol-2-one]: 30 µM; for `COc1ccc2cc([C@@H](C)C(=O)O)ccc2c1` [sodium;(2R)-2-(6-methoxy-2-naphthalenyl)propanoate]: 3.11 µM.
For the compound `O=C1Nc2ccc(Br)cc2C1=C1Nc2ccccc2C1=O`, a half-maximal effect (EC50) was put at 30 µM.
The same measure, in the same setting: next, `O=C1Nc2ccccc2/C1=C1/Nc2ccccc2C1=O` [2-[(3Z)-2-oxo-2,3-dihydro-1H-indol-3-ylidene]-2,3-dihydro-1H-indol-3-one]: 30 µM; `O=C1N=c2c(Cl)cccc2=C1c1[nH]c2ccccc2c1NO` [7-chloro-3-[3-(hydroxyamino)-1H-indol-2-yl]-2-indolone]: 30 µM.

Staying with this test, now noted: inactive by the depositor's call.
For `O=C(C#Cc1ccccc1)c1ccc(Cl)cc1` [UNM-0000306055], the EC50 was 30 µM.
Still for that read-out and setting: next, `O=C(C#Cc1ccccc1)c1ccc(F)cc1` [UNM-0000306059]: 31 µM.
Still for that read-out and setting: next, `COC(=O)c1ccc(C(=O)C#Cc2ccccc2)cc1` [4-(1-oxo-3-phenylprop-2-ynyl)benzoic acid methyl ester]: 30 µM.
Same read-out and setting: next, `CCCCS(=O)(=O)n1c(N)c(C#N)c(-c2cc(OC)c(OC)c(OC)c2)c1C(=O)c1ccccc1` [2-amino-5-benzoyl-1-butylsulfonyl-4-(3,4,5-trimethoxyphenyl)-3-pyrrolecarbonitrile]: 30 µM; `O=C(C#Cc1ccccc1)c1ccccc1` [UNM-0000306039]: 30 µM; `O=C1Nc2cccc(Br)c2/C1=C1/Cc2ccccc2C1=O`: 30 µM.
In the case of `COc1ccc(S(=O)(=O)n2c(N)c(C#N)c(-c3cncc(Br)c3)c2C(=O)c2ccccc2)cc1` [2-amino-5-benzoyl-4-(5-bromo-3-pyridinyl)-1-(4-methoxyphenyl)sulfonyl-3-pyrrolecarbonitrile], the EC50 amounted to 30 µM.
Same read-out and setting: next, `O=C1Nc2ccccc2/C1=C1/Cc2ccccc2C1=O` [UNM-0000305763]: 30 µM.
On the same count and under the same terms, next, `COc1ccc(-c2c(C#N)c(N)n(S(C)(=O)=O)c2C(=O)c2ccccc2)cc1Br` [2-azanyl-4-(3-bromanyl-4-methoxy-phenyl)-1-methylsulfonyl-5-(phenylcarbonyl)pyrrole-3-carbonitrile]: 30 µM; `O=[N+]([O-])c1ccc(C#Cc2ccccc2)cc1`: 30 µM.
The same measure, in the same setting: the same measure for `O=C(C#Cc1ccccc1)c1ccc(OC(F)(F)F)cc1`: 30 µM; for `N#Cc1c(-c2ccc(Cl)cc2)c(C(=O)c2ccccc2)n(S(=O)(=O)c2ccc([N+](=O)[O-])cc2)c1N` [UNM-0000305780]: 30 µM.
With `CSc1ccc(/C=C2/C(C)=C(CC(=O)O)c3cc(F)ccc32)cc1` [{6-Fluoro-2-methyl-3-[1-(4-methylsulfanyl-phenyl)-meth-(E)-ylidene]-3H-inden-1-yl}-acetic acid], it took 30 µM to reach a half-maximal effect (EC50). This lies in the double-digit micromolar range.
Still for that read-out and setting: the same measure for `CC1=C(CC(=O)O)c2cc(F)ccc2/C1=C/c1ccc([S+](C)[O-])cc1` (configuration not stated) [UNM-0000306136]: 30 µM.
On to `O=C1Nc2c(Br)cccc2/C1=C1/Cc2ccccc2C1=O` [(3E)-7-bromo-3-(3-oxo-1H-inden-2-ylidene)-1H-indol-2-one], for which a half-maximal effect (EC50) was put at 30 µM.
Same read-out and setting: next, `COc1ccc(C(=O)C#Cc2ccccc2)cc1` [1-(4-methoxyphenyl)-3-phenyl-2-propyn-1-one]: 30 µM; `N#Cc1ccc(C(=O)C#Cc2ccccc2)cc1` [4-(3-phenylprop-2-ynoyl)benzenecarbonitrile]: 30 µM.
In turn, `COc1ccc(S(=O)(=O)n2c(N)c(C#N)c(-c3ccccc3)c2C(=O)c2ccc(Br)cc2)cc1` came in with an EC50 of 30 µM.
The same measure, in the same setting: the same measure for `O=C(C#Cc1ccccc1)c1ccc([N+](=O)[O-])cc1` [1-(4-nitrophenyl)-3-phenyl-2-propyn-1-one]: 30 µM; for `COc1ccc2cc(CC(=O)O)ccc2c1` [2-(6-methoxynaphthalen-2-yl)ethanoic acid]: 30 µM; for `CC(C(=O)O)c1cccc(C(=O)c2ccccc2)c1` (configuration not stated) [2-(3-benzoylphenyl)propanoic acid]: 30 µM.
The same measure, in the same setting: next, `COc1ccc(S(=O)(=O)n2c(N)c(C#N)c(-c3cc(Br)c(OC)c(OC)c3)c2C(=O)c2ccccc2)cc1` [UNM-0000305782]: 30 µM.
In turn, `O=C(C#Cc1ccccc1)c1cccnc1` [3-phenyl-1-pyridin-3-ylprop-2-yn-1-one] gave an EC50 of 30 µM.
Same read-out and setting: next, `CC(=O)Oc1ccccc1C(=O)O` [2-(acetyloxy)benzoic acid]: 30 µM; `CC(C)Cc1ccc([C@H](C)C(=O)O)cc1` [(S)-2-(4-Isobutyl-phenyl)-propionic acid]: 30 µM.
The same measure, in the same setting: next, `COc1cc(-c2c(C#N)c(N)n(S(=O)(=O)c3c(C(C)C)cc(C(C)C)cc3C(C)C)c2C(=O)c2ccccc2)cc(OC)c1OC` [2-azanyl-5-(phenylcarbonyl)-4-(3,4,5-trimethoxyphenyl)-1-[2,4,6-tri(propan-2-yl)phenyl]sulfonyl-pyrrole-3-carbonitrile]: 30 µM; `O=C(C#Cc1ccccc1)c1ccccc1[N+](=O)[O-]` [UNM-0000306038]: 30 µM.

Broadly, the EC50 is the concentration that produces a half-maximal response.
